In US8669252B2, “Prolylcarboxypeptidase inhibitors” (Merck Sharp & Dohme Corp., priority 2010, dated 2014):
pIC50: −log10 of the molar value.

Columns and labels:
rats = conditions: intracerebroventricular administration to rats; cited from earlier work
[1] = tested on: obese, leptin deficient mice; conditions: systemic administration to obese; cited from earlier work
[2] = in vivo; cited from earlier work
human PrCP = human PrCP (Homo sapiens (Human), UniProt P42785); experiment: biochemical
Sequence of human PrCP (P42785 46-496): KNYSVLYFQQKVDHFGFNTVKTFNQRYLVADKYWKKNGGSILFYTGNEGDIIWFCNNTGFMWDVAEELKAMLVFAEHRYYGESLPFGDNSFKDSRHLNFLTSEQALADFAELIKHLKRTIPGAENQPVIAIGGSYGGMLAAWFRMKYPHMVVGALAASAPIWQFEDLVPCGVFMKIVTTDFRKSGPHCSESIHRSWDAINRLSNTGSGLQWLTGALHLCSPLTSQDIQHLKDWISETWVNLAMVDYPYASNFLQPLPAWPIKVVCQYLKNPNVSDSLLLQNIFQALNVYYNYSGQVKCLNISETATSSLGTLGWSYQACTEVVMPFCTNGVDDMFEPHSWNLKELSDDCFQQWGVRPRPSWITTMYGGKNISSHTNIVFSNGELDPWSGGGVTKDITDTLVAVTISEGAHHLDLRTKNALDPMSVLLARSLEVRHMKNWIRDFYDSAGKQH
Experimental: The assay was performed using a Hamilton Star liquid handling workstation. The assay employed the internally quenched fluorescent substrate (1S)-1-carboxy-5-[(2,4-dinitrophenyl)amino]pentyl N-[(7-methoxy-2-oxo-2H-chromen-4-yl)acetyl]-L-alanyl-L-prolinate prepared in house.
The assay also contained 2% DMSO used to solubilize the substrate and inhibitor. Inhibitors were prepared in 100% DMSO and serial diluted (in 100% DMSO) to generate 11 point titration curves. Either 39 uL of human or mouse PrCP enzyme was added to the wells of the assay plate, followed by a 1 uL addition of the serially diluted inhibitor and mixed three times using a 30 uL mix volume. The reaction was initiated by the addition of 10 uL substrate and mixed three times using a 30 uL mix volume. […] IC50 values were calculated by comparing the resulting rates of reaction of the inhibited and control initial velocities.
The enzymes were diluted in a mixture of 10 mM NaOAc (pH 5.5)/100 mM NaCl buffer containing 25 ug/mL bovine serum albumin that had been warmed to 37° C. in a water bath. The PrCP inhibitor test compounds were plated in 100% DMSO with a highest concentration of 500 uM. There were 12 dilution points for each compound tested including a blank with DMSO only. […]

Compound: t-butyl carbamate-prolyl prolinal [BPP]
- overnight food intake (rats): suppression of overnight food intake
- overnight food intake [1]: suppression of overnight food intake

Compound: CC(C)(N)Cc1ccccc1 [phentermine]
- weight loss, of body weight for drug compared to placebo [2]: 5%-10%

Compound: CCN[C@@H](C)Cc1cccc(C(F)(F)F)c1 [dexfenfluramine]
- weight loss, of body weight for drug compared to placebo [2]: 5%-10%

Compound: CC(C)CC(N(C)C)C1(c2ccc(Cl)cc2)CCC1 (stereo not shown) [sibutramine]
- weight loss, of body weight for drug compared to placebo [2]: 5%-10%

Compound: O=C(NC(c1ccc(F)cc1)c1ccc(F)cc1)C1CCC(N2CCOCC2)CC1c1ccc(F)cc1 (single isomer, unassigned) [Example 4, N-[bis(4-fluorophenyl)methyl]-2-(4-fluorophenyl)-4-(morpholin-4-yl)cyclohexanecarboxamide]
- pIC50 (human PrCP): 8.68

Compound: CCCCCCCCCCC[C@@H](C[C@@H]1OC(=O)[C@H]1CCCCCC)OC(=O)[C@H](CC(C)C)NC=O [orlistat]
- weight loss, of body weight for drug compared to placebo [2]: 5%-10%
